Measurements taken from the SangsterLogP compilation.

Conditions: pH 7.4

logD | SMILES
0.35 | NS(=O)(=O)c1cc2cc(C(=O)NCC(O)CO)sc2s1 (configuration not stated)
-0.15 | CS(=O)CCNC(=O)c1cc2cc(S(N)(=O)=O)sc2s1 (configuration not stated)
